Experimental data from US20220125765A1, “PHARMACEUTICAL COMBINATIONS COMPRISING MEBENDAZOLE AND A STRONG OR MODERATE CYP1A2 INHIBITOR” (ZEPHAPHARM LTD, priority 2019, published 2022).
Where two headings read alike, the source gives them in different places.

Assays:
[1] = target: T1, human OATP1B1 transporter (Homo sapiens, UniProt Q9Y6L6); test: Uptake into OATP1B1 and empty vector transfected HEK293 cells; type: in vitro ADME; details: for Uptake rate Mean: 2 min; for Uptake ratio: OATP1B1 vs control
T1 construct: expressed in transfected cells; host or cells: HEK293 (transient transfection)
T1 sequence (Q9Y6L6 1-691): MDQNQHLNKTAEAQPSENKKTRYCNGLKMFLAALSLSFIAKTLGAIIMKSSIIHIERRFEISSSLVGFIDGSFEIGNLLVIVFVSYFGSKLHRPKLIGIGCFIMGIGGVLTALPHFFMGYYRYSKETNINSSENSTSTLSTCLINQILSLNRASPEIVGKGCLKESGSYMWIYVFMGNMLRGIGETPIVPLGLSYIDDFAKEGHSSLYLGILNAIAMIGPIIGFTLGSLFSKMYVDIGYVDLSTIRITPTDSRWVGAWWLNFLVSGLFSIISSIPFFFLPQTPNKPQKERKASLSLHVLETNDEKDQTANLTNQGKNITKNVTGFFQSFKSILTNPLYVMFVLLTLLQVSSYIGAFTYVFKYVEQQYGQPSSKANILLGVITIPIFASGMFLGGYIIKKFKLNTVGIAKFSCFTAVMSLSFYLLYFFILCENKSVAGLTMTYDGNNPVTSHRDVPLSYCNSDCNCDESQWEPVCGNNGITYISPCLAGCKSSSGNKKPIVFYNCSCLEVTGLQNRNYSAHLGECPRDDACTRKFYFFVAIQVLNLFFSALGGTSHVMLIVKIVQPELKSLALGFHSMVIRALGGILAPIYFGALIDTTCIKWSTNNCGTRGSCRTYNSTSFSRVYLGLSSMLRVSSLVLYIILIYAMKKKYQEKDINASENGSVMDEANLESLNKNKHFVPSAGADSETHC
Experimental: (§1) Test compound (at 1 and 10 μM) was incubated with both SLC transporter-expressing HEK293 cells and control (empty vector) HEK293 cells for 2 min.

[2] = target: T2, human OATP1B3 transporter (Homo sapiens, UniProt Q9NPD5); test: Uptake into OATP1B3 and empty vector transfected HEK293 cells; type: in vitro ADME; details: for Uptake rate Mean: 2 min; for Uptake ratio: OATP1B3 vs control
T2 construct: expressed in transfected cells; host or cells: HEK293 (transient transfection)
T2 sequence (Q9NPD5 1-702): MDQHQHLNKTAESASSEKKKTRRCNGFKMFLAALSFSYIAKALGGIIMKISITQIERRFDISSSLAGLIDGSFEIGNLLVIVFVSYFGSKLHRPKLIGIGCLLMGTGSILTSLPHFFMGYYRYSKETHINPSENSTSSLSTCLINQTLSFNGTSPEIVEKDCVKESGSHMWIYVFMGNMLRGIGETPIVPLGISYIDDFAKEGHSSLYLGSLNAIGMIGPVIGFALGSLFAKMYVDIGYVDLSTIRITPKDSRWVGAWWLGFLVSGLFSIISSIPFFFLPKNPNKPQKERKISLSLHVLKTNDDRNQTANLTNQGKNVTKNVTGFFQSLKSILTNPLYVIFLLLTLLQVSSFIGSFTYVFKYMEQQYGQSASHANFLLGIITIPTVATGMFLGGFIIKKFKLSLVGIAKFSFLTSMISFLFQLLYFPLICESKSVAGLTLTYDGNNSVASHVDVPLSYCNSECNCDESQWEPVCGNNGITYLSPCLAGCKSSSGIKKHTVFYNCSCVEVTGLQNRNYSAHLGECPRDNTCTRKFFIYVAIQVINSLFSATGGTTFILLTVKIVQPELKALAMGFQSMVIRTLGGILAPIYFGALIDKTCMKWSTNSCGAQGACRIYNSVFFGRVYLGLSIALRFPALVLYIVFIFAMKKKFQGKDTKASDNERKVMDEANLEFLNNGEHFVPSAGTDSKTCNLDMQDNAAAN
Experimental: as §1

CYP3A4 = CYP3A4 (Homo sapiens, UniProt P08684); test: Cytochrome P450 reaction phenotyping, recombinant CYP3A4 (Bactosomes)
Chain of CYP3A4 (P08684 whole entry, canonical isoform): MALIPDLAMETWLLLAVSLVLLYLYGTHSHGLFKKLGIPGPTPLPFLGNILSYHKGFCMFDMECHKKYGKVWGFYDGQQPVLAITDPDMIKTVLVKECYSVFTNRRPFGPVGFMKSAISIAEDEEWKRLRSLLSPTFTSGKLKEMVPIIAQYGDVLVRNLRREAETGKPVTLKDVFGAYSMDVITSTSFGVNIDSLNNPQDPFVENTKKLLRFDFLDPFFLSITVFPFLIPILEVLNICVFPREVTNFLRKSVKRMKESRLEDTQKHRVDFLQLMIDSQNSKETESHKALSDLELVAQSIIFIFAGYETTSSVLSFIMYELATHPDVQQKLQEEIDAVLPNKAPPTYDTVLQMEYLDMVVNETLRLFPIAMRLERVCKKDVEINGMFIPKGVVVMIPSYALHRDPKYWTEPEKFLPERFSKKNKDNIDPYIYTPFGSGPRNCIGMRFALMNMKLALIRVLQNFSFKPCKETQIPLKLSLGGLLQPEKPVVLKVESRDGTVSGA
Experimental: Incubations were also performed using control Bactosomes™ (no P450 enzymes present) to reveal any non-enzymatic degradation. Control compounds known to be metabolised specifically by each P450 isoform were included. All incubations were performed singularly for each test compound.
Incubations were also performed using control Bactosomes™ (no P450 enzymes present) to reveal any non-enzymatic degradation. Control compounds known to be metabolised specifically by each P450 isoform were included. All incubations were performed singularly for each test compound. […] The reactions were stopped by transferring an aliquot of incubate to quench solvent at the appropriate time points, in a 1:3 ratio. The termination plates were centrifuged at 3,000 rpm for 20 min at 4° C. to precipitate the protein.

RXF 1781L = test: 2D monolayer CellTiter-Blue viability, renal cancer RXF 1781L; type: cell-based; details: for Test/Control (%) at Drug Concentration: 72 h; for IC50: RXF 1781L
Experimental: Mebendazole was tested in vitro across a panel of 12 tumor cell lines of ovarian and renal cancer by using a 2D monolayer assay. […] OVXF 899L and RXF 486L are P-gp expressing, multidrug resistant cell lines.
Anti-tumor activity is expressed as absolute and relative IC50/70 values, calculated by 4-parameter non-linear curve fit.

[3] = 1 μM, control (empty vector) HEK293 cells
[4] = 10 μM, control (empty vector) HEK293 cells

Q: What does the source list for `COC(=O)Nc1nc2ccc(C(=O)c3ccccc3)cc2[nH]1` [Mebendazole, methyl N-(6-benzoyl-1H-benzimidazol-2-yl)carbamate]?
A: Uptake rate Mean ([1]; 1 μM, OATP1B1 HEK293 cells): 42.5 pmol/mg; Uptake ratio ([1]; 1 μM): 0.9; Uptake rate Mean [1, 3]: 49.0 pmol/mg; Uptake rate Mean ([1]; 10 μM, OATP1B1 HEK293 cells): 426 pmol/mg; Uptake ratio ([1]; 10 μM): 0.9; Uptake rate Mean [1, 4]: 461 pmol/mg; substrate of the human OATP1B1 transporter ([1]; 1 and 10 μM): not a substrate; Uptake rate Mean ([2]; 1 μM, OATP1B3 HEK293 cells): 56.6 pmol/mg; Uptake ratio ([2]; 1 μM): 1.1; Uptake rate Mean [2, 3]: 50.1 pmol/mg; Uptake rate Mean ([2]; 10 μM, OATP1B3 HEK293 cells): 466 pmol/mg; Uptake ratio ([2]; 10 μM): 1.1; Uptake rate Mean [2, 4]: 414 pmol/mg; substrate of the human OATP1B3 transporter ([2]; 1 and 10 μM): not a substrate; Compound Remaining (% of 0 min) (CYP3A4; CYP3A4, 5 μM, 0 min): 100 % of 0 min; Compound Remaining (% of 0 min) (CYP3A4; CYP3A4, 5 μM, 5 min): 95.1 % of 0 min; Compound Remaining (% of 0 min) (CYP3A4; CYP3A4, 5 μM, 15 min): 85.4 % of 0 min; Compound Remaining (% of 0 min) (CYP3A4; CYP3A4, 5 μM, 30 min): 105 % of 0 min; Compound Remaining (% of 0 min) (CYP3A4; CYP3A4, 5 μM, 45 min): 104 % of 0 min; % compound remaining (CYP3A4; CYP3A4, 5 μM, time not stated): > 87.5%; t1/2 (CYP3A4; CYP3A4, substrate 5 μM): >2.25 h; half-life at 5 μM (CYP3A4; human, recombinant CYP3A4 (Bactosomes), pH 7.4): > 2.25 h; Test/Control (%) at Drug Concentration (RXF 1781L; RXF 1781, 1.0E+00 μM): 25%; Test/Control (%) at Drug Concentration (RXF 1781L; RXF 1781, 1.0E−01 μM): 91%; Test/Control (%) at Drug Concentration (RXF 1781L; RXF 1781, 1.0E−02 μM): 92%; Test/Control (%) at Drug Concentration (RXF 1781L; RXF 1781, 1.0E−03 μM): 101%; Test/Control (%) at Drug Concentration (RXF 1781L; RXF 1781, 1.0E−04 μM): 98%; Test/Control (%) at Drug Concentration (RXF 1781L; RXF 1781, 3.2E+00 μM): 32%; Test/Control (%) at Drug Concentration (RXF 1781L; RXF 1781, 3.2E−01 μM): 61%; Test/Control (%) at Drug Concentration (RXF 1781L; RXF 1781, 3.2E−02 μM): 95%; Test/Control (%) at Drug Concentration (RXF 1781L; RXF 1781, 3.2E−03 μM): 95%; Test/Control (%) at Drug Concentration (RXF 1781L; RXF 1781, 3.2E−04 μM): 100%; Abs. IC70 (RXF 1781L; RXF 1781, 72 h): 978 nM; Rel. IC70 (RXF 1781L; RXF 1781, 72 h): 410 nM; Bot. (%) (RXF 1781L; RXF 1781, 72 h, curve fit): 28%; Top (%) (RXF 1781L; RXF 1781, 72 h, curve fit): 96%; IC50 (RXF 1781L; RXF 1781, 72 h, read-out: Abs. IC50): 395 nM; IC50 (RXF 1781L; RXF 1781, 72 h, read-out: Rel. IC50): 309 nM
